Target: T1, human mAChR M4 (Homo sapiens, UniProt P08173)
T1 construct: expressed in transfected cells; host or cells: CHO-K1 (American Type Culture Collection), stably expressing hM4 and Gqi5
T1 sequence (P08173 1-479): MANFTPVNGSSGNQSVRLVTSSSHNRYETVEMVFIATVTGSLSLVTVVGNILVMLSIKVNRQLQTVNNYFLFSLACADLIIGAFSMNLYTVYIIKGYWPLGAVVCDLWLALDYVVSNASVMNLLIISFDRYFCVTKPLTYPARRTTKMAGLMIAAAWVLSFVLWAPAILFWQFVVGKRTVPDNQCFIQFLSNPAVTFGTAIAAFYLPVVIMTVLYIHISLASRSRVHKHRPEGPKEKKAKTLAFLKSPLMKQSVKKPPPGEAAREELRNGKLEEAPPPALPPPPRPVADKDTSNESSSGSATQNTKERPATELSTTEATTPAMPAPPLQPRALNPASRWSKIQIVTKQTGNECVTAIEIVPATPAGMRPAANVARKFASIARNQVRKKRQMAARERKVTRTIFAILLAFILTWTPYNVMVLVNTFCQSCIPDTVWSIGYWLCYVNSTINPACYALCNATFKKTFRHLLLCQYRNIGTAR
Assay: mAChR M4 cell-based functional assay: calcium mobilization (Fluo-4, FDSS), potentiation of EC20 acetylcholine response in hM4-Gqi5 CHO-K1 cells
Details: human M4; for Emax at 30 µM: CHO-K1, % ACh maximum at 30 μM; for EC50: potentiation of EC20 acetylcholine response, calcium mobilization
Method in brief: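 Readout is the fluorescence-ratio rise at 1 Hz on FDSS, with PAM activity taken as concentration-dependent enhancement of the EC20 acetylcholine response, fitted four-parameter for EC50/Emax. hM4-Gqi5 CHO-K1 cells carried Fluo-4 AM dye; test compounds (11 points, 1:3) preceded EC20 acetylcholine additions at 144 s and 230 s.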

SMILES	Emax at 30 µM [%]	EC50 [nM]
Cc1cc2nccc(=O)n2nc1N1CCc2ncc(-c3cc(C#N)n(C)c3C)cc2C1 [Compound 1-423, 1,5-dimethyl-4-(6-(8-methyl-4-oxo-4H-pyrimido[1,2-b]pyridazin-7-yl)-5,6,7,8-tetrahydro-1,6-naphthyridin-3-yl)-1H-pyrrole-2-carbonitrile]	79	1190
Cc1cc(=O)n2nc(N3CCc4ncc(-c5cccnc5)cc4C3)c(C)cc2n1 [Compound 1-290, 2,8-dimethyl-7-(3-(pyridin-3-yl)-7,8-dihydro-1,6-naphthyridin-6(5H)-yl)-4H-pyrimido[1,2-b]pyridazin-4-one]	90	375
Cc1cc(=O)n2nc(N3CCc4ncc(-c5cnn(C6COC6)c5)cc4C3)c(C)cc2n1 [Compound 1-287, 2,8-dimethyl-7-(3-(1-(oxetan-3-yl)-1H-pyrazol-4-yl)-7,8-dihydro-1,6-naphthyridin-6(5H)-yl)-4H-pyrimido[1,2-b]pyridazin-4-one]	85	1210
Cc1c(N2CCc3ncc(-c4cnn(C(F)F)c4)cc3C2)nn2c(=O)ccnc2c1C [Compound 1-339, 7-(3-(1-(difluoromethyl)-1H-pyrazol-4-yl)-7,8-dihydro-1,6-naphthyridin-6(5H)-yl)-8,9-dimethyl-4H-pyrimido[1,2-b]pyridazin-4-one]	77	230
Cc1cc2nccc(=O)n2nc1N1CCc2ncc(Nc3ccccc3)cc2C1 [Compound 2-60, 8-methyl-7-(3-(phenylamino)-7,8-dihydro-1,6-naphthyridin-6(5H)-yl)-4H-pyrimido[1,2-b]pyridazin-4-one]	91	29
CCn1cc(-c2cnc3c(c2)CN(c2nn4c(=O)cc(C(F)F)nc4c(C)c2C)CC3)cn1 [Compound 1-166, 2-(difluoromethyl)-7-(3-(1-ethyl-1H-pyrazol-4-yl)-7,8-dihydro-1,6-naphthyridin-6(5H)-yl)-8,9-dimethyl-4H-pyrimido[1,2-b]pyridazin-4-one]	86	283
Cc1cc(=O)n2nc(N3CCc4ncc(-c5ccccc5C(F)(F)F)cc4C3)c(C)c(C)c2n1 [Compound 1-277, 2,8,9-trimethyl-7-(3-(2-(trifluoromethyl)phenyl)-7,8-dihydro-1,6-naphthyridin-6(5H)-yl)-4H-pyrimido[1,2-b] pyridazin-4-one]	57	1120
COc1cc(-c2cnc3c(c2)CN(c2nn4c(=O)ccnc4cc2C)CC3)ccc1F [Compound 1-51, 7-(3-(4-fluoro-3-methoxyphenyl)-7,8-dihydro-1,6-naphthyridin-6(5H)-yl)-8-methyl-4H-pyrimido[1,2-b]pyridazin-4-one]	85	293
Cc1cc2nccc(=O)n2nc1N1CCc2ncc(NCC(C)C)cc2C1 [Compound 2-90, 7-(3-(isobutylamino)-7,8-dihydro-1,6-naphthyridin-6(5H)-yl)-8-methyl-4H-pyrimido[1,2-b]pyridazin-4-one]	69	798
Cc1cc(=O)n2nc(N3CCc4ncc(-c5ccccc5C(C)C)cc4C3)c(C)c(C)c2n1 [Compound 1-247, 7-(3-(2-isopropylphenyl)-7,8-dihydro-1,6-naphthyridin-6(5H)-yl)-2,8,9-trimethyl-4H-pyrimido[1,2-b]pyridazin-4-one]	55	1030
Cc1c(N2CCc3ncc(-n4cccn4)cc3C2)nn2c(=O)ccnc2c1C [Compound 2-34, 7-(3-(1H-pyrazol-1-yl)-7,8-dihydro-1,6-naphthyridin-6(5H)-yl)-8,9-dimethyl-4H-pyrimido[1,2-b]pyridazin-4-one]	77	318
Cc1cc2nccc(=O)n2nc1N1CCc2ncc(NC(=O)C3CC3)cc2C1 [Compound 2-108, N-(6-(8-methyl-4-oxo-4H-pyrimido[1,2-b]pyridazin-7-yl)-5,6,7,8-tetrahydro-1,6-naphthyridin-3-yl)cyclopropanecarboxamide]	56	1650
Cc1cc2nc(C(=O)N3CCC(c4cccnc4)C3)cc(=O)n2nc1N1CCc2ncc(C(F)(F)F)cc2C1 (stereo not shown) [Compound 1-43, 8-methyl-2-(3-(pyridin-3-yl)pyrrolidine-1-carbonyl)-7-(3-(trifluoromethyl)-7,8-dihydro-1,6-naphthyridin-6(5H)-yl)-4H-pyrimido[1,2-b]pyridazin-4-one]	92	612
Cc1cc(Nc2cnc3c(c2)CN(c2nn4c(=O)ccnc4cc2C)CC3)cnc1Cl [Compound 2-132, 7-(3-((6-chloro-5-methylpyridin-3-yl)amino)-7,8-dihydro-1,6-naphthyridin-6(5H)-yl)-8-methyl-4H-pyrimido[1,2-b]pyridazin-4-one]	93	587
Cc1c(N2CCc3ncc(N4C[C@@H](C)O[C@@H](C)C4)cc3C2)nn2c(=O)cc(C(F)F)nc2c1C [Compound 2-41, 2-(difluoromethyl)-7-(3-((2R,6S)-2,6-dimethylmorpholino)-7,8-dihydro-1,6-naphthyridin-6(5H)-yl)-8,9-dimethyl-4H-pyrimido[1,2-b]pyridazin-4-one]	96	822
Cc1cc2nccc(=O)n2nc1N1CCc2ncc(N3CCOC(C)(C)C3)cc2C1 [Compound 2-68, 7-(3-(2,2-dimethylmorpholino)-7,8-dihydro-1,6-naphthyridin-6(5H)-yl)-8-methyl-4H-pyrimido[1,2-b]pyridazin-4-one]	96	113
Cc1cnccc1-c1cnc2c(c1)CN(c1nn3c(=O)cc(C(F)F)nc3c(C)c1C)CC2 [Compound 1-307, 2-(difluoromethyl)-8,9-dimethyl-7-(3-(3-methylpyridin-4-yl)-7,8-dihydro-1,6-naphthyridin-6(5H)-yl)-4H-pyrimido[1,2-b]pyridazin-4-one]	88	69
Cc1cc2nccc(=O)n2nc1N1CCc2ncc(Nc3cccc(OC(F)F)c3)cc2C1 [Compound 2-71, 7-(3-((3-(difluoromethoxy)phenyl)amino)-7,8-dihydro-1,6-naphthyridin-6(5H)-yl)-8-methyl-4H-pyrimido[1,2-b]pyridazin-4-one]	97	82
Cc1cc(=O)n2nc(N3CCc4ncc(-c5cnn(-c6ccccn6)c5)cc4C3)c(C)c(C)c2n1 [Compound 1-175, 2,8,9-trimethyl-7-(3-(1-(pyridin-2-yl)-1H-pyrazol-4-yl)-7,8-dihydro-1,6-naphthyridin-6(5H)-yl)-4H-pyrimido[1,2-b]pyridazin-4-one]	61	4660
Cc1cc2nccc(=O)n2nc1N1CCc2ncc(-c3ccsc3C#N)cc2C1 [Compound 1-410, 3-(6-(8-methyl-4-oxo-4H-pyrimido[1,2-b]pyridazin-7-yl)-5,6,7,8-tetrahydro-1,6-naphthyridin-3-yl)thiophene-2-carbonitrile]	82	178
Cc1cc2nc(C3CC3)cc(=O)n2nc1N1CCc2ncc(N3CCCn4nccc43)cc2C1 [Compound 2-15, 2-cyclopropyl-7-(3-(6,7-dihydropyrazolo[1,5-a]pyrimidin-4(5H)-yl)-7,8-dihydro-1,6-naphthyridin-6(5H)-yl)-8-methyl-4H-pyrimido[1,2-b]pyridazin-4-one]	85	7
Cc1cc(=O)n2nc(N3CCc4ncc(-c5ccc(F)cc5F)cc4C3)c(C)c(C)c2n1 [Compound 1-279, 7-(3-(2,4-difluorophenyl)-7,8-dihydro-1,6-naphthyridin-6(5H)-yl)-2,8,9-trimethyl-4H-pyrimido[1,2-b]pyridazin-4-one]	81	1120
CCN(CC)c1cnc2c(c1)CN(c1nn3c(=O)ccnc3cc1C)CC2 [Compound 2-92, 7-(3-(diethylamino)-7,8-dihydro-1,6-naphthyridin-6(5H)-yl)-8-methyl-4H-pyrimido[1,2-b]pyridazin-4-one]	70	863
Cc1cc2ncc(Cl)c(=O)n2nc1N1CCc2ncc(Nc3ccncc3F)cc2C1 [Compound 2-157, 3-chloro-7-(3-((3-fluoropyridin-4-yl)amino)-7,8-dihydro-1,6-naphthyridin-6(5H)-yl)-8-methyl-4H-pyrimido[1,2-b]pyridazin-4-one]	90	3
Cc1cc(=O)n2nc(N3CCc4ncc(-c5cccc(F)c5)cc4C3)c(C)cc2n1 [Compound 1-211, 7-(3-(3-fluorophenyl)-7,8-dihydro-1,6-naphthyridin-6(5H)-yl)-2,8-dimethyl-4H-pyrimido[1,2-b]pyridazin-4-one]	76	446
COc1cnccc1-c1cnc2c(c1)CN(c1nn3c(=O)cc(C)nc3c(C)c1C)CC2 [Compound 1-282, 7-(3-(3-methoxypyridin-4-yl)-7,8-dihydro-1,6-naphthyridin-6(5H)-yl)-2,8,9-trimethyl-4H-pyrimido[1,2-b]pyridazin-4-one]	90	481

— patent US20250101041A1, “POSITIVE ALLOSTERIC MODULATORS OF THE MUSCARINIC ACETYLCHOLINE RECEPTOR M4” (Vanderbilt University, priority 2022, published 2025)
